Measured values from PMC10893631, “Receptor-based pharmacophore modeling, molecular docking, synthesis and biological evaluation of novel VEGFR-2, FGFR-1, and BRAF multi-kinase inhibitors” (BMC Chemistry, 2024).

Columns and labels:
Test in all cases: NCI SRB growth inhibition (single dose 10 µM / five-dose)
Type in all cases: cell-based, human
LOX IMVI = tested on: LOX IMVI
In short: (§1)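 SRB read-out. Plating density 5000–40,000 cells/well; Tz fixed at 24 h; 5 conc. (10-fold or ½ log) + control; TCA fix, 0.4% SRB/1% AcOH 10 min RT; % growth = (Ti−Tz)/(C−Tz)×100, or (Ti−Tz)/Tz×100 when Ti<Tz.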

RPMI-8226 = tested on: RPMI-8226
In short: as §1

NCI-H226 = tested on: NCI-H226
In short: as §1

NCI/ADR-RES = tested on: NCI/ADR-RES
In short: as §1

IGROV1 = tested on: IGROV1
In short: as §1

OVCAR-3 = tested on: OVCAR-3
In short: as §1

SK-MEL-2 = tested on: SK-MEL-2
In short: as §1

OVCAR-4 = tested on: OVCAR-4
In short: as §1

HOP-62 = tested on: HOP-62
In short: as §1

ACHN = tested on: ACHN
In short: as §1

HOP-92 = HOP-92 (Non-small cell lung cancer), 10 µM
In short: as §1

COLO 205 = tested on: COLO 205
In short: as §1

SK-MEL-5 = tested on: SK-MEL-5
In short: as §1

NCI-H23 = tested on: NCI-H23
In short: as §1

SNB-75 = tested on: SNB-75
In short: as §1

SNB-19 = tested on: SNB-19
In short: as §1

A498 = tested on: A498
In short: as §1

HCC-2998 = tested on: HCC-2998
In short: as §1

OVCAR-5 = tested on: OVCAR-5
In short: as §1

NCI-H322M = tested on: NCI-H322M
In short: as §1

HT29 = tested on: HT29
In short: as §1

UACC-257 = tested on: UACC-257
In short: as §1

HCT-15 = tested on: HCT-15
In short: as §1

MOLT-4 = tested on: MOLT-4
In short: as §1

T-47D = tested on: T-47D
In short: as §1

MALME-3 M = tested on: MALME-3 M
In short: as §1

## N'-(2-Hydroxybenzylidene)-2-phenyl-1H-benzo[d]imidazole-5-carbohydrazide [8a]
LOX IMVI; LOX IMVI (Melanoma), 10 µM
  GI%: 88.38%
LOX IMVI; LOX IMVI, Melanoma, five-dose
  GI50: 2 µM
RPMI-8226; RPMI-8226 (Leukemia), 10 µM
  GI%: 88.59%
RPMI-8226; RPMI-8226, Leukemia, five-dose
  GI50: 1.19 µM
NCI-H226; NCI-H226 (Non-small cell lung cancer), 10 µM
  GI%: 93.32%
NCI-H226; NCI-H226, Non-small cell lung cancer, five-dose
  GI50: 4.02 µM
NCI/ADR-RES; NCI/ADR-RES (Ovarian cancer), 10 µM
  GI%: 63.15%
NCI/ADR-RES; NCI/ADR-RES, Ovarian cancer, five-dose
  GI50: 3.51 µM
IGROV1; IGROV1 (Ovarian cancer), 10 µM
  GI%: 82.83%
IGROV1; IGROV1, Ovarian cancer, five-dose
  GI50: 3.9 µM
OVCAR-3; OVCAR-3 (Ovarian cancer), 10 µM
  GI%: L (GI% > 100)
OVCAR-3; OVCAR-3, Ovarian cancer, five-dose
  GI50: 1.94 µM
SK-MEL-2; SK-MEL-2 (Melanoma), 10 µM
  GI%: 60.21%
SK-MEL-2; SK-MEL-2, Melanoma, five-dose
  GI50: 3.19 µM
OVCAR-4; OVCAR-4 (Ovarian cancer), 10 µM
  GI%: 94.42%
OVCAR-4; OVCAR-4, Ovarian cancer, five-dose
  GI50: 2.24 µM
HOP-62; HOP-62 (Non-small cell lung cancer), 10 µM
  GI%: L (GI% > 100)
HOP-62; HOP-62, Non-small cell lung cancer, five-dose
  GI50: 1.47 µM
ACHN; ACHN (Renal cancer), 10 µM
  GI%: L (GI% > 100)
ACHN; ACHN, Renal cancer, five-dose
  GI50: 3.28 µM
HOP-92
  GI%: L (GI% > 100)
COLO 205; COLO 205 (Colon cancer), 10 µM
  GI%: L (GI% > 100)
COLO 205; COLO 205, Colon cancer, five-dose
  GI50: 1.97 µM
SK-MEL-5; SK-MEL-5 (Melanoma), 10 µM
  GI%: 85.73%
SK-MEL-5; SK-MEL-5, Melanoma, five-dose
  GI50: 3.75 µM
NCI-H23; NCI-H23 (Non-small cell lung cancer), 10 µM
  GI%: 83.12%
NCI-H23; NCI-H23, Non-small cell lung cancer, five-dose
  GI50: 3.31 µM
SNB-75; SNB-75 (CNS cancer), 10 µM
  GI%: L (GI% > 100)
SNB-75; SNB-75, CNS cancer, five-dose
  GI50: 2.2 µM
SNB-19; SNB-19 (CNS cancer), 10 µM
  GI%: 95.02%
SNB-19; SNB-19, CNS cancer, five-dose
  GI50: 4.16 µM
A498; A498 (Renal cancer), 10 µM
  GI%: – (GI% < 5%)
A498; A498, Renal cancer, five-dose
  GI50: 16.9 µM
HCC-2998; HCC-2998 (Colon cancer), 10 µM
  GI%: 73.20%
HCC-2998; HCC-2998, Colon cancer, five-dose
  GI50: 3.91 µM
OVCAR-5; OVCAR-5 (Ovarian cancer), 10 µM
  GI%: 77.04%
OVCAR-5; OVCAR-5, Ovarian cancer, five-dose
  GI50: 8.5 µM
NCI-H322M; NCI-H322M (Non-small cell lung cancer), 10 µM
  GI%: 94.14%
NCI-H322M; NCI-H322M, Non-small cell lung cancer, five-dose
  GI50: 2.13 µM
HT29; HT29 (Colon cancer), 10 µM
  GI%: L (GI% > 100)
HT29; HT29, Colon cancer, five-dose
  GI50: 2.63 µM
UACC-257; UACC-257 (Melanoma), 10 µM
  GI%: 88.80%
UACC-257; UACC-257, Melanoma, five-dose
  GI50: 4 µM
HCT-15; HCT-15 (Colon cancer), 10 µM
  GI%: 94.00%
HCT-15; HCT-15, Colon cancer, five-dose
  GI50: 1.07 µM
MOLT-4; MOLT-4 (Leukemia), 10 µM
  GI%: 89.54%
MOLT-4; MOLT-4, Leukemia, five-dose
  GI50: 1.62 µM
T-47D; T-47D (Breast cancer), 10 µM
  GI%: 93.65%
T-47D; T-47D, Breast cancer, five-dose
  GI50: 3.38 µM
MALME-3 M; MALME-3 M (Melanoma), 10 µM
  GI%: 99.32%
MALME-3 M; MALME-3 M, Melanoma, five-dose
  GI50: 1.88 µM
